Assay results published in ChEMBL document CHEMBL3351304, “Bioactive constituents from the green alga Caulerpa racemosa” (Bioorg Med Chem, 2015).

What was measured:
A549 = assay: Cytotoxicity against human A549 cells by SRB assay; format: functional, cell-based
[1] = biological target: T1, Tyrosine-protein phosphatase non-receptor type 11 (Homo sapiens) (UniProt Q06124); assay: Inhibition of SHP2 (unknown origin) using pNPP as substrate at 20 ug/ml by spectrophotometry
T1 sequence (whole entry): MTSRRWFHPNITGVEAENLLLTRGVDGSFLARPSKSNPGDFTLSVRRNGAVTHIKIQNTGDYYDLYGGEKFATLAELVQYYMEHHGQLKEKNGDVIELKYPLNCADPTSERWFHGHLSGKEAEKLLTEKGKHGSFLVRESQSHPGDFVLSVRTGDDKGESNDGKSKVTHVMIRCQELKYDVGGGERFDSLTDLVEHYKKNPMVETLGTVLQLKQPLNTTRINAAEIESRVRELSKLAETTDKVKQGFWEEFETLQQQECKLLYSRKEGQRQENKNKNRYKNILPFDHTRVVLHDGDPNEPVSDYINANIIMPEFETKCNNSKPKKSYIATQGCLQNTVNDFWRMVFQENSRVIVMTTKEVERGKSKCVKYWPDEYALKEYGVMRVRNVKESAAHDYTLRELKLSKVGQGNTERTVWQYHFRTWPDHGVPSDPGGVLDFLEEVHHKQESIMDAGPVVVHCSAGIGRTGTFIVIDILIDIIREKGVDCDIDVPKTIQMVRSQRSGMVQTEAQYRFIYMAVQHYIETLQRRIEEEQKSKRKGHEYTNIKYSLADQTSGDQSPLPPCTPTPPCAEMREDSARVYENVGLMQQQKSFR

[2] = biological target: T2, Tyrosine-protein phosphatase non-receptor type 6 (Homo sapiens, UniProt P29350); assay: Inhibition of SHP1 (unknown origin) using pNPP as substrate at 20 ug/ml by spectrophotometry
[3] = biological target: Receptor-type tyrosine-protein phosphatase F (Homo sapiens) (UniProt P10586); assay: Inhibition of LAR (unknown origin) using pNPP as substrate at 20 ug/ml by spectrophotometry
[4] = Cytotoxicity against human HL60 cells by SRB assay; format: functional, cell-based; details: HL-60
[5] = biological target: T3, M-phase inducer phosphatase 2 (Homo sapiens) (UniProt P30305); assay: Inhibition of CDC25B (unknown origin) using pNPP as substrate at 20 ug/ml by spectrophotometry
T3 sequence (whole entry): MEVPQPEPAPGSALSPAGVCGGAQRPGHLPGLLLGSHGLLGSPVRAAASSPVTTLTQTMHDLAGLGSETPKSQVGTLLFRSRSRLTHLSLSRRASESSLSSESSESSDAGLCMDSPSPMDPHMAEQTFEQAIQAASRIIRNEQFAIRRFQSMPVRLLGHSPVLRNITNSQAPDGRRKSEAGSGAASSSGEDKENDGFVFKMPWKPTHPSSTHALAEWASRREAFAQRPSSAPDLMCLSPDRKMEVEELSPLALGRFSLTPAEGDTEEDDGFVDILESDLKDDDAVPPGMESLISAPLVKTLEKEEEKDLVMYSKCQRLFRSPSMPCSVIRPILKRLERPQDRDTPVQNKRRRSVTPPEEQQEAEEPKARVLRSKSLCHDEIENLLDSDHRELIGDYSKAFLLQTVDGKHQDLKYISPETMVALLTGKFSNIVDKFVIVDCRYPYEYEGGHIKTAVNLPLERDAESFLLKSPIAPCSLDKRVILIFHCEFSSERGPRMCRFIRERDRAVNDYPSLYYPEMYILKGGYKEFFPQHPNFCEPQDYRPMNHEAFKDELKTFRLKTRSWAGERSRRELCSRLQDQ

[6] = biological target: T4, Tyrosine-protein phosphatase non-receptor type 2 (Homo sapiens) (UniProt P17706); assay: Inhibition of TC-PTP (unknown origin) using pNPP as substrate at 20 ug/ml by spectrophotometry
T4 sequence (whole entry): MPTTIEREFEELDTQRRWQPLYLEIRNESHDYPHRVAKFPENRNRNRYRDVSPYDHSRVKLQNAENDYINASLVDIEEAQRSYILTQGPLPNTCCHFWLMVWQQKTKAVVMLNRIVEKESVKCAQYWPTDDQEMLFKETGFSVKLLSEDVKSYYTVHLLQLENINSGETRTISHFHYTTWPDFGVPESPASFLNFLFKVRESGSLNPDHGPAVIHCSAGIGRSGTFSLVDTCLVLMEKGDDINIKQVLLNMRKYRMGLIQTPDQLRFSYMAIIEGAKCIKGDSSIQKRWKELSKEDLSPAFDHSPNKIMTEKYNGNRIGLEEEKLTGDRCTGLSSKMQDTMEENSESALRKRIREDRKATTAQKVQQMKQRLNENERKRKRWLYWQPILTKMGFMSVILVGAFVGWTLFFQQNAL

[7] = biological target: T5, Tyrosine-protein phosphatase non-receptor type 1 (Homo sapiens, UniProt P18031); assay: Inhibition of purified recombinant PTP1B catalytic domain (unknown origin) using pNPP as substrate by spectrophotometry
T5 sequence (P18031 whole entry): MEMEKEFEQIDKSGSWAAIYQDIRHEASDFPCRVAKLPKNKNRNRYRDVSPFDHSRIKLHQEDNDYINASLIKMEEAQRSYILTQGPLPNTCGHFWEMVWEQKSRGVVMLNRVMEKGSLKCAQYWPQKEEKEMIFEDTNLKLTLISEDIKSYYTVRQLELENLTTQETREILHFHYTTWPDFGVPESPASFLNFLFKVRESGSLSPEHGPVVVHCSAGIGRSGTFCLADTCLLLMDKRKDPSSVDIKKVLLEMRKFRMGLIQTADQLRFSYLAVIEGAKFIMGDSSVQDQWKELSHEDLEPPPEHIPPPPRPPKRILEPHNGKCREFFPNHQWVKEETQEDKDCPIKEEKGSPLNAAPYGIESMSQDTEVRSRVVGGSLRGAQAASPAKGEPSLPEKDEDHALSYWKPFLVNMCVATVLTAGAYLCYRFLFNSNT

SH-SY5Y = assay: Neuroprotective activity against amyloid beta(25 to 35)-induced cell damage in human SH-SY5Y cells assessed as increase in cell viability preincubated at 10 uM 2 hrs prior to challenge by MTT assay relative to control; format: functional
[8] = biological target: T6, Tyrosine-protein phosphatase non-receptor type 2 (Homo sapiens, UniProt P17706); assay: Inhibition of TC-PTP (unknown origin) using pNPP as substrate by spectrophotometry
T6 sequence (P17706 whole entry): T4 sequence (whole entry)

[9] = biological target: T7, M-phase inducer phosphatase 2 (Homo sapiens, UniProt P30305); assay: Inhibition of CDC25B (unknown origin) using pNPP as substrate by spectrophotometry
T7 sequence (P30305 whole entry): T3 sequence (whole entry)

[10] = biological target: T2, Tyrosine-protein phosphatase non-receptor type 6
Description: Inhibition of SHP1 (unknown origin) using pNPP as substrate by spectrophotometry

T2 sequence (P29350 whole entry): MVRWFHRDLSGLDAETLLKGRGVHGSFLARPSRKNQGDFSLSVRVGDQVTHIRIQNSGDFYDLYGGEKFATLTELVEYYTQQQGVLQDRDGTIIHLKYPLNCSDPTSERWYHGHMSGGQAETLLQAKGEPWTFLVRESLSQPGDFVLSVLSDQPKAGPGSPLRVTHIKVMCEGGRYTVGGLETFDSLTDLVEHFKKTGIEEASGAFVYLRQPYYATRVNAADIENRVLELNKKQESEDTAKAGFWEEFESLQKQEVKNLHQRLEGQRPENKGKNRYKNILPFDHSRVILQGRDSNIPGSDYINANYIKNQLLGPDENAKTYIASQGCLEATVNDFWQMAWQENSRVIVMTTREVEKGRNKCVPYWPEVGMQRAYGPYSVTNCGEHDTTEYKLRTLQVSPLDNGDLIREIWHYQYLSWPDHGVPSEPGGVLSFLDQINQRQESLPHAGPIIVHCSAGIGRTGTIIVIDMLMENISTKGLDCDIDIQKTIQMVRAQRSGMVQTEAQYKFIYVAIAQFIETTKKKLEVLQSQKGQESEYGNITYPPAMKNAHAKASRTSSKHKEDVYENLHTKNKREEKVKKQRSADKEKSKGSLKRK
Sequence of Receptor-type tyrosine-protein phosphatase F (Homo sapiens) (P10586 whole entry): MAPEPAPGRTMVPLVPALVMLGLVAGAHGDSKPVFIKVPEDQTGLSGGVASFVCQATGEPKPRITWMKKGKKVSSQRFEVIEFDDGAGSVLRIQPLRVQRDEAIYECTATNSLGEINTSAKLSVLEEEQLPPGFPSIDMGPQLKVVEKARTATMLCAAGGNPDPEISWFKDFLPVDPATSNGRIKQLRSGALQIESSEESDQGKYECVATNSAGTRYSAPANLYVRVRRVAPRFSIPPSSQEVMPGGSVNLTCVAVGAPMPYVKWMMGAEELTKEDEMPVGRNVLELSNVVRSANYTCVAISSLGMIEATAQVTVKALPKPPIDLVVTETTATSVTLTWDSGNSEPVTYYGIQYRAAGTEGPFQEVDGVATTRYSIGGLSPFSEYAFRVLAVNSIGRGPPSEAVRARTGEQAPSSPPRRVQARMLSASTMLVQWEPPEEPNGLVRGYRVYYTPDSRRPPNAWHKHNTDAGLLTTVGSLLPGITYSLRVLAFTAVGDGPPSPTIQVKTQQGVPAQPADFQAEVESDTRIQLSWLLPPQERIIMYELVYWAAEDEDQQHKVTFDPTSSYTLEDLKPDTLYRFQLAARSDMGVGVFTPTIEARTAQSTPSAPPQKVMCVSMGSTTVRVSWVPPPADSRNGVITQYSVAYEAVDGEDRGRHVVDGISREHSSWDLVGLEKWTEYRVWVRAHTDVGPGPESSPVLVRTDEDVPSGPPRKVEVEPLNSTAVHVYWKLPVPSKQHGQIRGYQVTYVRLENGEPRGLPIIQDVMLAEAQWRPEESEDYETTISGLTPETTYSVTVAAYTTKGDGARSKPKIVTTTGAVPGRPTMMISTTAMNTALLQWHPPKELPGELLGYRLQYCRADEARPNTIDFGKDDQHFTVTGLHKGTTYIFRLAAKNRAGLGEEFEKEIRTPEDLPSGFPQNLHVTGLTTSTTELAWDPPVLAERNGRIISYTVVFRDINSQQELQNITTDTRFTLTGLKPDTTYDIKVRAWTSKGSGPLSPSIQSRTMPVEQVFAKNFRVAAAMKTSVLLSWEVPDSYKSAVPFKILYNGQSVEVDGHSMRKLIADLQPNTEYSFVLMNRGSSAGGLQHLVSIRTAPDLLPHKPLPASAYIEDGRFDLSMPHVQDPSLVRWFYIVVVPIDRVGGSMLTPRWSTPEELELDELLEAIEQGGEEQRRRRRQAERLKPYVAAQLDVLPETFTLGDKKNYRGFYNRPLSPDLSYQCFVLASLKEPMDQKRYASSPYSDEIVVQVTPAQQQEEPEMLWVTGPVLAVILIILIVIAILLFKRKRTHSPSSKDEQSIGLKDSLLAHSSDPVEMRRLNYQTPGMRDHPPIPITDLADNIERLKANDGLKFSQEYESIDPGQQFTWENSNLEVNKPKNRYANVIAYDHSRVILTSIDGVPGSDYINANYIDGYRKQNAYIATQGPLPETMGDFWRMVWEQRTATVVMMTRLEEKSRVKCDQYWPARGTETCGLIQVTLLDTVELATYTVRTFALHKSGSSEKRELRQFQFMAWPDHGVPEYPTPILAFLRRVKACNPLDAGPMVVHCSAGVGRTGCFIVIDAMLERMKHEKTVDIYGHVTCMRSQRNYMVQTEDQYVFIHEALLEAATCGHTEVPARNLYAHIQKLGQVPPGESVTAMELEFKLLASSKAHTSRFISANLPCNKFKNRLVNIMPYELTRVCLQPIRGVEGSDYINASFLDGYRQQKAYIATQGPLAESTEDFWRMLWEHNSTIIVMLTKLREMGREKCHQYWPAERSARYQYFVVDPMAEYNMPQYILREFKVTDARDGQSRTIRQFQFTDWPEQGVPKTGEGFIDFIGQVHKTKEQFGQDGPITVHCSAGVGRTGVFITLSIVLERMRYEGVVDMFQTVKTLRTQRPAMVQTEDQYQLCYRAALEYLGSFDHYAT

inhibition [1] [%]	inhibition [2] [%]	inhibition [3] [%]	inhibition [5] [%]	inhibition [6] [%]	IC50 [7] [µM]	Compound	IC50 (A549) [µM]	IC50 [4] [µM]	Activity (SH-SY5Y) [%]	IC50 [8] [µM]	IC50 [9] [µM]	IC50 [10] [µM]
< 50	< 50	< 50	< 50	< 50	32.6	C/C(=C\CO)CCC[C@H](C)CCC[C@H](C)CCCC(C)C [TRANS-PHYTOL]	> 100	> 100				
						O=C(O[C@@H]1Cc2c(O)cc(O)cc2O[C@@H]1c1cc(O)c(O)c(O)c1)c1cc(O)c(O)c(O)c1 [EPIGALOCATECHIN GALLATE]			16.57			
						COc1cccc2c1C(=O)c1c(O)c3c(c(O)c1C2=O)C[C@@](O)(C(=O)CO)C[C@@H]3O[C@H]1C[C@H](N)[C@H](O)[C@H](C)O1 [DOXORUBICIN]		0.123				
						CC(=O)[C@]1(O)C(C)=C(C)C(=O)[C@@]12CC[C@](C)(CCC[C@H](C)CCC[C@H](C)CCCC(C)C)O2	> 100	67.4				
						CC1=CC(=O)OC1CC[C@H](C)CCC[C@H](C)CCCC(C)C (stereo not given in full)		49.3				
< 50	< 50	< 50			2.3	CC1=C(CCC(=O)OC/C=C(\C)CCC[C@H](C)CCC[C@H](C)CCCC(C)C)C(=O)NC1=O	> 100	> 100		12.6	42.9	
						SODIUM ORTHOVANAD						16.5
< 50	< 50	< 50	< 50	< 50	11	CC1=C(C)C(=O)[C@@]2(CC[C@@](C)(CCC[C@H](C)CCC[C@H](C)CCCC(C)C)O2)[C@@](C)(O)C1=O	> 100	> 100	13.85			
< 50	< 50	< 50	< 50	< 50	50	CC(C)C(=O)/C=C/[C@@H](C)[C@H]1CC[C@H]2[C@@H]3CC=C4C[C@@H](O)CC[C@]4(C)[C@H]3CC[C@]12C	> 100	> 100	15.98			
< 50	< 50	< 50	< 50	< 50	50	CC(=O)OC/C=C(\C)CCC[C@H](C)CCC[C@H](C)CCCC(C)C	> 100	> 100				
< 50	< 50	< 50	< 50	< 50	3.8	CC(=O)/C(=C/C[C@@H](C)[C@H]1CC[C@H]2[C@@H]3CC=C4C[C@@H](O)CC[C@]4(C)[C@H]3CC[C@]12C)C(C)C	> 100	> 100	11.31			

Compound	inhibition [1] [%]	inhibition [2] [%]	inhibition [3] [%]	inhibition [5] [%]	inhibition [6] [%]	IC50 [7] [µM]	IC50 (A549) [µM]	IC50 [4] [µM]	Activity (SH-SY5Y) [%]	IC50 [8] [µM]	IC50 [9] [µM]	IC50 [10] [µM]
C=C[C@@](O)(CC[C@@H](C)[C@H]1CC[C@H]2[C@@H]3CC=C4C[C@@H](O)CC[C@]4(C)[C@H]3CC[C@]12C)C(C)C	< 50	< 50	< 50	< 50	< 50	10.3	> 100	> 100				
C=C[C@](O)(CC[C@@H](C)[C@H]1CC[C@H]2[C@@H]3CC=C4C[C@@H](O)CC[C@]4(C)[C@H]3CC[C@]12C)C(C)C	< 50	< 50	< 50	< 50	< 50	41.7	> 100	> 100				
CC1(C)CC[C@]2(C(=O)O)CC[C@]3(C)C(=CC[C@@H]4[C@@]5(C)CC[C@H](O)C(C)(C)[C@@H]5CC[C@]43C)[C@@H]2C1 [OLEANOLIC_ACID]	< 50	< 50	< 50								0.98	
CC1=C(C)C(=O)C(CC[C@](C)(O)CCC[C@H](C)CCC[C@H](C)CCCC(C)C)=C(C)C1=O	< 50	< 50	< 50			3.85	85.3	45		35.1	23.2	
